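Cultured in 96-well plates, cells were exposed to test compound for 48 hours across five concentrations. TGI marks complete inhibition of growth.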
Tests used:
Assay in all cases: DTP human tumour cell line panel, 48 h
HL-60(TB) leukemia = test system: HL-60(TB) leukemia
RXF 393 renal = test system: RXF 393 renal
M14 melanoma = test system: M14 melanoma
KM12 colon = test system: KM12 colon
A498 renal = test system: A498 renal
K-562 leukemia = test system: K-562 leukemia
NCI-H226 lung = test system: NCI-H226 lung
M19-MEL melanoma = test system: M19-MEL melanoma
SK-OV-3 ovarian = test system: SK-OV-3 ovarian
SK-MEL-28 melanoma = test system: SK-MEL-28 melanoma
NCI-H522 lung = test system: NCI-H522 lung
OVCAR-8 ovarian = test system: OVCAR-8 ovarian
TK-10 renal = test system: TK-10 renal
NCI-H23 lung = test system: NCI-H23 lung
HCT-116 colon = test system: HCT-116 colon
UO-31 renal = test system: UO-31 renal
RPMI-8226 leukemia = test system: RPMI-8226 leukemia
NCI-H460 lung = test system: NCI-H460 lung
HT29 colon = test system: HT29 colon
DLD-1 colon = test system: DLD-1 colon
OVCAR-5 ovarian = test system: OVCAR-5 ovarian
HCC-2998 colon = test system: HCC-2998 colon
XF 498 CNS = test system: XF 498 CNS
SF-539 CNS = test system: SF-539 CNS
SNB-75 CNS = test system: SNB-75 CNS
EKVX NSCLC = test system: EKVX NSCLC
HOP-18 NSCLC = test system: HOP-18 NSCLC
LXFL 529 NSCLC = test system: LXFL 529 NSCLC
A549 NSCLC = test system: A549 NSCLC
HOP-62 NSCLC = test system: HOP-62 NSCLC
SN12C renal = test system: SN12C renal
U251 CNS = test system: U251 CNS
CAKI-1 renal = test system: CAKI-1 renal
KM20L2 colon = test system: KM20L2 colon
COLO 205 colon = test system: COLO 205 colon
MALME-3M melanoma = test system: MALME-3M melanoma
SF-295 CNS = test system: SF-295 CNS
LOX IMVI melanoma = test system: LOX IMVI melanoma
SF-268 CNS = test system: SF-268 CNS
OVCAR-3 ovarian = test system: OVCAR-3 ovarian
SNB-19 CNS = test system: SNB-19 CNS
SK-MEL-5 melanoma = test system: SK-MEL-5 melanoma
UACC-257 melanoma = test system: UACC-257 melanoma
SR leukemia = test system: SR leukemia
UACC-62 melanoma = test system: UACC-62 melanoma
786-0 renal = test system: 786-0 renal
OVCAR-4 ovarian = test system: OVCAR-4 ovarian
DMS 114 small cell lung = test system: DMS 114 small cell lung
SNB-78 CNS = test system: SNB-78 CNS
MOLT-4 leukemia = test system: MOLT-4 leukemia
DMS 273 small cell lung = test system: DMS 273 small cell lung
ACHN renal = test system: ACHN renal
IGROV1 ovarian = test system: IGROV1 ovarian
RXF-631 renal = test system: RXF-631 renal
HCT-15 colon = test system: HCT-15 colon
CCRF-CEM leukemia = test system: CCRF-CEM leukemia
HOP-92 NSCLC = test system: HOP-92 NSCLC
SW-620 colon = test system: SW-620 colon
SK-MEL-2 melanoma = test system: SK-MEL-2 melanoma

Work on `Cc1cc(NS(=O)(=O)c2ccc(Nc3c4ccccc4nc4c(C(=O)Nc5ccc(S(=O)(=O)N=C(N)N)cc5)ccc(Cl)c34)cc2)no1` yielded a TGI (HL-60(TB) leukemia) of 68.8 µM, a TGI (RXF 393 renal) of 72.9 µM and a TGI (M14 melanoma) of over 100 µM. It also gave a TGI (KM12 colon) of over 100 µM, a TGI (A498 renal) of over 100 µM and a TGI (K-562 leukemia) of over 100 µM. The TGI (NCI-H226 lung) was 97.8 µM, the TGI (M19-MEL melanoma) was over 100 µM and the TGI (SK-OV-3 ovarian) was 95.4 µM. It also gave a TGI (SK-MEL-28 melanoma) of over 100 µM, a TGI (NCI-H522 lung) of 33.2 µM and a TGI (OVCAR-8 ovarian) of 38.5 µM. The TGI (TK-10 renal) was over 100 µM, the TGI (NCI-H23 lung) was 92.6 µM and the TGI (HCT-116 colon) was over 100 µM. The TGI (UO-31 renal) was over 100 µM, the TGI (RPMI-8226 leukemia) was over 100 µM and the TGI (NCI-H460 lung) was over 100 µM. The TGI (HT29 colon) was over 100 µM, the TGI (DLD-1 colon) was over 100 µM and the TGI (OVCAR-5 ovarian) was over 100 µM. It also gave a TGI (HCC-2998 colon) of over 100 µM, a TGI (XF 498 CNS) of 90.9 µM and a TGI (SF-539 CNS) of 41.7 µM. The TGI (SNB-75 CNS) was 73.2 µM, the TGI (EKVX NSCLC) was over 100 µM and the TGI (HOP-18 NSCLC) was over 100 µM. It also gave a TGI (LXFL 529 NSCLC) of over 100 µM, a TGI (A549 NSCLC) of over 100 µM and a TGI (HOP-62 NSCLC) of 77.9 µM. The TGI (SN12C renal) was over 100 µM, the TGI (U251 CNS) was over 100 µM and the TGI (CAKI-1 renal) was over 100 µM. The TGI (KM20L2 colon) was over 100 µM, the TGI (COLO 205 colon) was over 100 µM and the TGI (MALME-3M melanoma) was over 100 µM. For the same compound, the TGI (SF-295 CNS) was over 100 µM, the TGI (LOX IMVI melanoma) was 36.8 µM and the TGI (SF-268 CNS) was 63.2 µM. For the same compound, the TGI (OVCAR-3 ovarian) was 63.2 µM, the TGI (SNB-19 CNS) was over 100 µM and the TGI (SK-MEL-5 melanoma) was over 100 µM. For the same compound, the TGI (UACC-257 melanoma) was over 100 µM, the TGI (SR leukemia) was 61 µM and the TGI (UACC-62 melanoma) was 73.5 µM. It also gave a TGI (786-0 renal) of over 100 µM, a TGI (OVCAR-4 ovarian) of 85.6 µM and a TGI (DMS 114 small cell lung) of 68.9 µM. For the same compound, the TGI (SNB-78 CNS) was 97.7 µM, the TGI (MOLT-4 leukemia) was 67.3 µM and the TGI (DMS 273 small cell lung) was over 100 µM. For the same compound, the TGI (ACHN renal) was over 100 µM.
Work on `O=C1CCC2(c3ccccc3)Nc3ccc(Cl)cc3N12` (stereo unspecified) yielded a TGI (HL-60(TB) leukemia) of over 100 µM, a TGI (RXF 393 renal) of over 100 µM and a TGI (M14 melanoma) of over 100 µM. The TGI (KM12 colon) was over 100 µM, the TGI (A498 renal) was over 100 µM and the TGI (K-562 leukemia) was over 100 µM. The TGI (NCI-H226 lung) was over 100 µM, the TGI (M19-MEL melanoma) was over 100 µM and the TGI (SK-OV-3 ovarian) was over 100 µM. For the same compound, the TGI (SK-MEL-28 melanoma) was over 100 µM, the TGI (NCI-H522 lung) was over 100 µM and the TGI (OVCAR-8 ovarian) was over 100 µM. The TGI (IGROV1 ovarian) was over 100 µM, the TGI (TK-10 renal) was over 100 µM and the TGI (NCI-H23 lung) was over 100 µM. The TGI (RXF-631 renal) was over 100 µM, the TGI (UO-31 renal) was over 100 µM and the TGI (RPMI-8226 leukemia) was over 100 µM. It also gave a TGI (NCI-H460 lung) of over 100 µM, a TGI (HT29 colon) of over 100 µM and a TGI (DLD-1 colon) of over 100 µM. The TGI (OVCAR-5 ovarian) was over 100 µM, the TGI (HCC-2998 colon) was over 100 µM and the TGI (HCT-15 colon) was over 100 µM. The TGI (XF 498 CNS) was over 100 µM, the TGI (SF-539 CNS) was over 100 µM and the TGI (SNB-75 CNS) was over 100 µM. The TGI (EKVX NSCLC) was over 100 µM, the TGI (LXFL 529 NSCLC) was over 100 µM and the TGI (A549 NSCLC) was over 100 µM. The TGI (CCRF-CEM leukemia) was over 100 µM, the TGI (HOP-62 NSCLC) was over 100 µM and the TGI (SN12C renal) was over 100 µM. It also gave a TGI (U251 CNS) of over 100 µM, a TGI (CAKI-1 renal) of over 100 µM and a TGI (HOP-92 NSCLC) of over 100 µM. It also gave a TGI (KM20L2 colon) of over 100 µM, a TGI (COLO 205 colon) of over 100 µM and a TGI (MALME-3M melanoma) of over 100 µM. It also gave a TGI (SF-295 CNS) of over 100 µM, a TGI (SW-620 colon) of over 100 µM and a TGI (LOX IMVI melanoma) of over 100 µM. It also gave a TGI (SF-268 CNS) of over 100 µM, a TGI (OVCAR-3 ovarian) of over 100 µM and a TGI (SK-MEL-2 melanoma) of over 100 µM. The TGI (SK-MEL-5 melanoma) was over 100 µM, the TGI (UACC-257 melanoma) was over 100 µM and the TGI (UACC-62 melanoma) was over 100 µM. The TGI (786-0 renal) was over 100 µM, the TGI (OVCAR-4 ovarian) was over 100 µM and the TGI (DMS 114 small cell lung) was over 100 µM. It also gave a TGI (SNB-78 CNS) of over 100 µM, a TGI (MOLT-4 leukemia) of over 100 µM and a TGI (ACHN renal) of over 100 µM.
